Results on three compounds are retold here after patent US20040242870A1, “Antiviral methods and compounds” (priority 2000, published 2004).

Where only a bound is given, the exact number is not on record here.

For series [1], the system named is PBMCs. Briefly: PBMC cytotoxicity in time-of-addition assay. Format: cell-based, Human. The text has this:
(§1) Human peripheral blood mononuclear cells from a minimum of 2 donors, that have been blasted with PHA and IL-2, were counted, viability determined by Trypan Blue dye exclusion and mixed in equal ratios. Pooled donors were used to minimize the variability observed between individual donors which results from quantitative and qualitative differences in HIV infection and overall response to the PHA and IL-2 of primary lymphocyte populations. The cells were resuspended at 1×10^6 cells/mL in RPMI 1640 without phenol red supplemented with 15% Fetal Bovine Serum (heat inactivated), 2 mM L-glutamine, 100 U/mL penicillin, 100 μg/mL streptomycin, 10 μg/Ln gentamycin and IL-2 (20 U/mL, R&D Systems, Minneapolis, Minn.). Fifty microliters of cells were then distributed to the inner 60 wells of a 96 well round bottom microtiter culture plate in a standard format developed by the Infectious Disease Research department of Southern Research Institute. Each plate contains cell control wells (cells only), virus control wells (cells plus virus), and experimental wells (drug plus cells plus virus). Alternatively, cells were cultured in T25 cm^2 or T75 cm^2 tissue culture flasks at a starting density of 1×10^6 cells per ml. Serially diluted compounds were added to the microtiter plate or tissue culture flask followed by the appropriate pre-titered strain of HIV-1. For virus replication inhibition experiments the HIV-1 strain RoJo was used. This is a low passage presumable subtype B pediatric isolate with a syncytium inducing (SI) phenotype in MT-2 cells isolated by Southern Research Institute personnel. All samples were assayed in triplicate where possible with an accompanying determination of compound toxicity. The final volume per well in the microtiter plates was 200 μL. The final volume in the tissue culture flask varied depending upon experimental design and flask size. Assays were incubated for 6 days in a humidified atmosphere at 37° C., 5% CO2, after which supernatants were collected, for analysis of RT activity and cell viability by MTS dye reduction. Culture were also examined microscopically, any abnormalities noted, and in the case of tissue culture flasks cell counts and viability determined by Trypan Blue Dye exclusion.
Time-of-addition assays were performed with PBMCs in two ways. For both assays, PBMCs were isolated and cultured under the conditions as described above. Time-of-addition assays were carried out in either a tissue culture flask format (T-75 cm^2) or in microtiter wells. In both cases due to the lack of plastic adherence and heterogeneity of the PBMC population for susceptibility to infection, it was not possible to use complete removal of virus following a timed adsorption to synchronize the infection and limit the assay to a single round of infection. Therefore, serial washing by partial removal of the media was used to reduce the concentration of virus and compound (if required) in the assay. Compound addition in relationship to antiviral activity was either assessed over a short addition interval immediately before or after virus addition or for up to 72 h post infection. For all assays virus replication was assessed at 6 days of culture by determining RT expression in cell-free supernatants. In the tissue culture flask format cells were counted and Trypan Blue Dye exclusion used to monitor compound cytotoxicity. Cell viability in the 96 well microtiter plate format was determined by MTS dye reduction. AZT was used as a positive control.
At assay termination the assay plates were stained with the soluble tetrazolium-based dye MTS (CellTiter96® Reagent Promega) to determine cell viability and quantify compound toxicity. MTS is metabolized by the mitochondria enzymes of metabolically active cells to a soluble formazan product, allowing the rapid quantitative analysis cell viability and compound cytotoxicity. […] At termination of the assay 20 μL of MTS reagent was added per well and incubated for 4 h at 37° C. […]

Series [2] concerns PBMCs. As to the kind of experiment: PBMC viability by Trypan Blue dye exclusion. The series is classed as cell-based, Human.
Source text: as §1
Experiments were conducted using flow cytometry to assess the effect of the IMG compounds and cannabidiol on induction of apoptosis. Briefly, compound-treated PBMCs were assayed for apoptosis using a BrdU methodology. Table 6 summarizes the effects of the IMG Compounds on cell cycle and cell viability by Trypan Blue Dye exclusion. Table 7 reduces the changes in the cell cycle to a ratio based upon the percent of cells in G2-G1. G2-G1 cells represent transition cells that are in either G2 or G1, that cannot be distinguished based upon DNA content by flow cytometry. […] This ratio cannot be used as a quantitative factor to measure fold-increases or decreases between population, but rather to access trends in the cell cycle.

A further series has as its system HIV-1 strain RoJo. Briefly: PBMC time-of-addition assay (RT in cell-free supernatant at 6 days). Format: cell-based. To be noted: for IC50: Human immunodeficiency virus 1, PBMC; for increase in IC50 (loss in potency): 24 h pretreatment. As for the experimental part: Peripheral blood monocular cells (PBMCs) were obtained from normal hepatitis and HIV-1 negative donors by ficoll hypaque gradient separation. The mononuclear cells were washed to remove residual separation media, counted, viability determined and resuspended in RPMI 1640 medium supplemented with 15 % FBS (heat inactivated), 2 mM L-glutamine, 100 U/mL penicillin, 100 μg/mL streptomycin, and 10 μg/mL gentamycin with 2 μg/mL phytohemagluttin (PHA) at 1×10^6 cells/mL. The cells were cultured for 48 to 72 h at 37° C., 5% CO2. Following incubation, cells were collected by centrifugation, washed and resuspended in RPMI 1640 supplemented with 15% FBS (heat inactivated), 2 mM L-glutamine, 100 U/mL penicillin, 100 μg/mL streptomycin, and 10 μg/mL gentamycin with 20 U/mL recombinant IL-2 (R & D Systems, Minneapolis, Minn.). IL-2 was included in the culture medium to maintain the cell division initiated by the PHA mitogenic stimulation, and promote optimal growing conditions for the PBMCs. The cultures were then maintained until use by ½ culture volume change with fresh IL-2 containing medium every 3 days.
as §1
Time-of-addition assays were performed with PBMCs in two ways. For both assays, PBMCs were isolated and cultured under the conditions as described above. Time-of-addition assays were carried out in either a tissue culture flask format (T-75 cm^2) or in microtiter wells. In both cases due to the lack of plastic adherence and heterogeneity of the PBMC population for susceptibility to infection, it was not possible to use complete removal of virus following a timed adsorption to synchronize the infection and limit the assay to a single round of infection. […]

[3] abbreviates: −4 h pre (relative to infection).
[4] abbreviates: 4 h, −4 h pre (relative to infection).
Setting [5] is: pre-treat 0 h prior to infection.
Where [6] appears, read: pre-treat 2 h prior to infection.
[7] abbreviates: pre-treat 4 h prior to infection.
Setting [8] is: pre-treat 24 h prior to infection.

As usually defined, the IC50 is the concentration at which inhibition is half-maximal. Take `CC(C)=CCCC1(C)CCc2c(O)cc(C(C)(C)CCCC(C)C)cc2O1` (stereo not drawn) [IG-08, 3,4-Dihydro-2-methyl-2-(4-methyl-3-pentenyl)-7-(1,1,5-trimethylhexyl)-2H-1-benzopyran-5-ol]: the TC50 in the series with PBMCs [1] (6 h post infection), in the series on PBMCs [1] (at infection) and in the series on PBMCs [1] (setting [3]) was over 100 µM in each case. The “% Viable Cells” value with PBMCs [2] (15 μM, HIV +) is reported as 94%; in the series with PBMCs [2] (15 μM, HIV −) it was 89%; in the series on PBMCs [2] (30 μM, HIV +), 67%; in the series with PBMCs [2] (30 μM, HIV −), 62%. Besides, the “decrease in IC50” value with HIV-1 strain RoJo (4 h pretreatment) is 4-fold decrease in. Besides, the IC50 with HIV-1 strain RoJo (setting [4]) stood at 6.2 µM; with HIV-1 strain RoJo (6 h, 6 h post infection) it was 22.5 µM; with HIV-1 strain RoJo (at infection), 15.7 µM; in the series on HIV-1 strain RoJo (setting [5]), 14.2 µM; in the series on HIV-1 strain RoJo (setting [6]), 10.4 µM; in the series on HIV-1 strain RoJo (setting [7]), 4.1 µM. In addition, the IC50 with HIV-1 strain RoJo (setting [8]) was found to be 11.9 µM.

Consider `C=C(C)[C@@H]1CCC(C)=C[C@H]1c1c(O)cc(CCCCC)cc1O` [Cannabidiol, reference compound], for which the TC50 with PBMCs [1] (6 h post infection), in the series with PBMCs [1] (at infection) and with PBMCs [1] (setting [3]) was over 100 µM in each case. In addition, the “% Viable Cells” value was 94% in the series on PBMCs [2] (1 μM, HIV +); 85% with PBMCs [2] (1 μM, HIV −); 55% in the series with PBMCs [2] (25 μM, HIV +); 86% in the series on PBMCs [2] (25 μM, HIV −); 61% in the series on PBMCs [2] (35 μM, HIV +); 61% in the series with PBMCs [2] (35 μM, HIV −). The “loss of activity (potency)” value in the series with HIV-1 strain RoJo (2 h pre-treatment, listed as cannabidiol) is recorded as “approximately 10 fold”. The “regain of potency (decrease in IC50)” value in the series on HIV-1 strain RoJo (4 h pretreatment) is listed as “activity at 2, regain 3.3-fold”; with HIV-1 strain RoJo (4 h pretreatment, listed as cannabidiol), 3.3 fold. In addition, the “increase in IC50 (loss in potency)” value with HIV-1 strain RoJo was “at 4 h then a 17-fold”; with HIV-1 strain RoJo (listed as cannabidiol), 17 fold. In addition, the IC50 in the series on HIV-1 strain RoJo (setting [4]) was 12.1 µM; in the series with HIV-1 strain RoJo (6 h, 6 h post infection), 12.1 µM; in the series with HIV-1 strain RoJo (at infection), 13.8 µM; in the series on HIV-1 strain RoJo (setting [5]) it was 0.58 µM; in the series on HIV-1 strain RoJo (setting [6]), 5 µM; in the series with HIV-1 strain RoJo (setting [7]), 1.5 µM. Moreover, the IC50 with HIV-1 strain RoJo (setting [8]) is 10.5 µM.

As to `COc1cc(C(C)(C)CCCC(C)C)cc(OC)c1OC` [IG-07, 1-(1,1,5Trimethylhexyl)-3,4,5-trimethoxybenzene], the TC50 with PBMCs [1] (6 h post infection), with PBMCs [1] (at infection) and in the series on PBMCs [1] (setting [3]) was over 100 µM throughout. For the same compound, the “% Viable Cells” value with PBMCs [2] (5 μM, HIV +) was found to be 94%; in the series on PBMCs [2] (5 μM, HIV −), 92%; in the series on PBMCs [2] (100 μM, HIV +), 55%; in the series on PBMCs [2] (100 μM, HIV −), 50%. The “increase in IC50 (loss in potency)” value with HIV-1 strain RoJo is “approximately 2 fold”. For the same compound, the IC50 with HIV-1 strain RoJo (setting [4]) was determined as 39.5 µM; in the series with HIV-1 strain RoJo (6 h, 6 h post infection), 46.1 µM; in the series on HIV-1 strain RoJo (at infection), 67 µM; in the series with HIV-1 strain RoJo (setting [5]), 6.9 µM; in the series with HIV-1 strain RoJo (setting [6]), 6.1 µM; in the series on HIV-1 strain RoJo (setting [7]), 5.3 µM. Further, the IC50 in the series on HIV-1 strain RoJo (setting [8]) came to 10.8 µM.
